Reference: patent US20250099517A1, “Use of Lactobacillus reuteri Y7 strain for prevention or treatment of ocular diseases” (Taipei Medical University, priority 2023, published 2025)

Tests used:
[1] = water intakes of mice during the experiment; assay type: in vivo, C57BL/6 mice; conditions: LU, lutein 6.15 mg/kg bw oral daily, blue light, Mean±S.E.M., n=6
Method: In the present invention, six-week-old male C57BL/6 mice were placed in a breeding cage in which the following feeding conditions were kept: temperature, 22±2° C., humidity, 55±5%, and the light-dark cycle of 12-hour light and 12-hour dark. The mice were fed with fodders at the adaptive phase for one week; general solid fodders for test animals were administered to mice of the control group and mice during the adaptive phase. The initial day was defined as Day 0 when the adaptive phase for the mice was over. From the next week, the mice were interfered with samples under test and exposed to blue light. During the experiments, the mice were monitored for weights as well as water intakes and checked for any physiological change. The data for experiments through electroretinography (ERG), fndus photography (FP), fundus fluorescein angiograph (FFA), spectral-domain optical coherence tomography (SD-OCT) and intraocular pressure (IOP) were collected at Day 0, Day 21 and Day 35, as shown in FIG. 1 for the experimental process. The C57BL/6 mice, which weighed between 23 and 25 g, were divided into seven groups randomly. In each group, the six mice induced by blue light successfully were incorporated in experiments. The samples dissolved in deuterium-depleted water (DDW) were fed to mice through oral tubes once a day. The groups were named and introduced as follows: • (1) Solvent not classified group (NC): The mice were fed with 0.2 ml deuterium-depleted water (DDW) through tubes; • (2) Negative control group (Blue light (BL)): The mice were fed with 0.2 ml deuterium-depleted water (DDW) through tubes and exposed to blue light; • (3) Low-dosage Y7 probiotics group […]): The mice were fed with low-dosage Y7 probiotics (probiotic counts of 1.0×10^8 CFU/ml dissolved in 0.2 ml DDW per day) and exposed to blue light; • (4) High-dosage Y7 probiotics group […]): The mice were fed with high-dosage Y7 probiotics (probiotic counts of 1.0×10^9 CFU/ml dissolved in 0.2 ml DDW per day) and exposed to blue light; • (5) Positive control group (lutein (LU)): The mice were fed with lutein and exposed to blue light. The recommended human dosage of lutein is 30 mg. The mouse cage (48×25×20 cm) placed inside a stainless ventilated box was equipped with blue light boards as blue light sources around and above. In the experiment of animals exposed to blue light, six-week-old mice staying in the mouse cage were fed with drinking water as well as fodders and exposed to 400 Lux blue light illumination under the light-dark cycle of 12-hour light and 12-hour dark. The experiment was aimed at causing mice' late dry macular disease induced by chronic light injuries for simulating a human being's macular disease after long-term exposure to short-wavelength blue light from 3C products in daily life. All data written as the form of mean±standard error of the mean (S.E.M.) were used in the statistical analysis through the one-way ANOVA and the Newman-Keuls test; p<0.05 denoted statistical difference. In the experiment, the software for the statistical analysis was Graph pad Prism (v9.2.0). The data such as food intake, water intake, body weight, organ weight and other clinical examination data were analyzed with the one-way ANOVA.

[2] = tested on: Bax, Bcl-2, Caspase3 gene expression; experiment: q-PCR of apoptosis-related gene expression in eyes; assay type: in vivo, C57BL/6 mice
Method: The C57BL/6 mice, which weighed between 23 and 25 g, were divided into seven groups randomly. In each group, the six mice induced by blue light successfully were incorporated in experiments. The samples dissolved in deuterium-depleted water (DDW) were fed to mice through oral tubes once a day. The groups were named and introduced as follows: • (1) Solvent not classified group (NC): The mice were fed with 0.2 ml deuterium-depleted water (DDW) through tubes; • (2) Negative control group (Blue light (BL)): The mice were fed with 0.2 ml deuterium-depleted water (DDW) through tubes and exposed to blue light; • (3) Low-dosage Y7 probiotics group […]): The mice were fed with low-dosage Y7 probiotics (probiotic counts of 1.0×10^8 CFU/ml dissolved in 0.2 ml DDW per day) and exposed to blue light; • (4) High-dosage Y7 probiotics group […]): The mice were fed with high-dosage Y7 probiotics (probiotic counts of 1.0×10^9 CFU/ml dissolved in 0.2 ml DDW per day) and exposed to blue light; • (5) Positive control group (lutein (LU)): The mice were fed with lutein and exposed to blue light. The recommended human dosage of lutein is 30 mg. The mouse cage (48×25×20 cm) placed inside a stainless ventilated box was equipped with blue light boards as blue light sources around and above. In the experiment of animals exposed to blue light, six-week-old mice staying in the mouse cage were fed with drinking water as well as fodders and exposed to 400 Lux blue light illumination under the light-dark cycle of 12-hour light and 12-hour dark. The experiment was aimed at causing mice' late dry macular disease induced by chronic light injuries for simulating a human being's macular disease after long-term exposure to short-wavelength blue light from 3C products in daily life. The eyes of a mouse sacrificed were collected for the following purposes. RNAs extracted with Trizol were reverse-transcribed to cDNAs. Then, the real-time quantitative polymerase chain reaction was enabled to detect gene expressions related to inflammatory hormones and apoptosis such as TNF-α, IL-1B, IL-6, Bax, Bcl-2, Caspase1, Caspase3 and NLRP3 for comparisons with the endogenous level of β-actin, GAPDH or 18S rRNA. [table] The gene expressions related to apoptosis in test mice' eyes, for example, Bax (FIG. 9a), Bcl-2 (FIG. 9b) and Caspase3 (FIG. 9c), were analyzed in the experiment.

[3] = after intervention of Y7 probiotics (dosage groups not distinguished)

Compound | water intakes of mice ([1]; Day7) | water intakes of mice ([1]; Day14) | water intakes of mice ([1]; Day21) | water intakes of mice ([1]; Day28) | water intakes of mice ([1]; Day35) | gene expression of Bcl-2 compared with the BL group ([2]; Y7H high-dosage group) | gene expression of Bax, closeness to the NC group ([2]; Y7L low-dosage group versus LU group) | gene expression of Bax [2, 3] | gene expression of Caspase3 [2, 3]
CC1=C[C@H](O)CC(C)(C)[C@H]1/C=C/C(C)=C/C=C/C(C)=C/C=C/C=C(C)/C=C/C=C(C)/C=C/C1=C(C)C[C@@H](O)CC1(C)C [lutein, reference compound] | 3.69 ± 0.86 | 4.17 ± 1.05 | 4.71 ± 0.42 | 3.65 ± 0.61 | 3.88 ± 0.31 |  |  |  | 
Lactobacillus reuteri Y7 [Y7 probiotics] |  |  |  |  |  | increased significantly | closer to the NC group than the LU group | significantly inhibited | closer to the NC group
